From article PMC9023544, “Ketone-selenoesters as potential anticancer and multidrug resistance modulation agents in 2D and 3D ovarian and breast cancer in vitro models” (Scientific Reports, 2022)

Tested on: ABC superfamily genes in MCF-7/PAX
Assay: Expression of genes encoding ABC transporters, qPCR
Type: cell-based, human
Protocol: Based on the fact that compounds K3, K4, K7 sensitized drug-resistant cell lines (HOC/ADR, MCF-7/PAX) and modulated ATPase activity of one from the ABC proteins (P-gp), we verified the potential of these compounds to affect ABC superfamily gene expression. The ovarian and breast cancer cell lines (parental cells and resistant sub-line) were analysed for the expression profile of genes encoding the ABC proteins in the previous works[18]–[20]. […] After 48 h, the effect of compounds alone or in the combination with cytostatics was observed (Supplementary Tables 1, Table 2).
To determine the impact of selected compounds on the expression of genes encoding ABC transporter, HOC/ADR and MCF-7/PAX cells were seeded for 24 h into 5 cm Petri dishes with DMEM medium at the cell density 1 × 10^5 cells/mL. Afterwards, the cells were washed 1× with PBS and new fresh DMEM supplemented with K3, K4, and K7 (in concentration corresponding to their IC10 value) alone or combined with cytostatics (Adriamycin or paclitaxel in concentration corresponding to their IC25 value) was added. In the experiment, positive and negative control was also included (positive—untreated cells, negative—cells treated only with cytostatics). After 48 h exposure, the cells were washed once with PBS and released from the surface by using the above-mentioned trypsin–EDTA procedure. The enzyme reaction was stopped by medium addition and the cells were centrifuged (3200×g; 10 min, 4 °C). The supernatants were removed and before the next centrifugation, the pellets were resuspended in 1.5 mL of cooled PBS (5400×g; 10 min, 4 °C). After the second washing step, the cells were centrifuged another time (10,000×g; 3 min, 4 °C). Subsequently, 1 mL of Trizol (Invitrogen) was added to the pellets and the compounds were stored − 80 °C.
The RNA concentration of selenoester treated samples was determined using QuantiT RiboGreen RNA Assay Kit and Infinite M200 plate reader (Tecan, Männedor, Switzerland). The cDNA was synthesized from 0.5 µg of total RNA by RevertAid First Strand Synthesis cDNA Kit (MBI Fermentas, Vilnius, Lithuania). To determine the quality of cDNA, the ubiquitin C gene fragment was amplified. The experiment was performed in 384-well block by using ViiA7 Real-Time PCR System (Life Technologies, Camarillo, California, United States). A master mix contained 0.25 µL of 20× TaqMan Gene Expression Assay, 1 µL of 5× HotFIREPol Probe qPCR Mix Plus, 1.75 µL of RNase free water and 2 µL of 8× diluted cDNA. The final reaction volume was 5 µL. The PCR parameters were as follows: initial hold (50 °C for 2 min), denaturation (95 °C for 10 min), followed by 45 cycles (denaturation at 95 °C for 15 s, annealing at 60 °C for 1 min). After each cycle, the fluorescent signal was determined. For each compound, duplicates were analysed and those with a standard deviation higher than 0.5 Ct were re-analysed. A quantitate real-time PCR was followed by MIQE guidelines. To compare the relative transcript levels of genes, the software REST 2009 (Qiagen, Hilden, Germany) was used.
Table 2. Effect of selenoesters either on the expression of the ABC gene superfamily in paclitaxel-resistant breast cancer cell line (MCF-7/PAX).
Gene expression of ABC transporters were estimated using comercial predesigned Taqman Gene Expression Assays (Life technologies). TaqMan Gene Expression Assays are based on 5´ nuclease chemistry, and each assay contains the primer and probe set for target of interest. Taqman assays IDs and GenBank Accession numbers of reference sequencies identifying their location and amplicon lengths are included in the Supplementary Table I. * Relative transcript levels (P-value ) in treated and non-treated cancer cell lines were compared using REST 2009 software.

CC(=O)C[Se]C(=O)c1ccccc1C(F)(F)F [K4]
number of ABC genes with altered expression: 31
ABCA2 Expression Difference (IC10 alone, 48 h): 0.282
ABCA2 Treated vs. Untr. (IC10 alone, 48 h): DOWN
ABCA3 Expression Difference (IC10 alone, 48 h): 0.766
ABCA3 Treated vs. Untr. (IC10 alone, 48 h): DOWN
ABCA4 Expression Difference (IC10 alone, 48 h): 40.43
ABCA5 Expression Difference (IC10 alone, 48 h): 0.789
ABCA5 Treated vs. Untr. (IC10 alone, 48 h): DOWN
ABCA7 Expression Difference (IC10 alone, 48 h): 0.757
ABCA7 Treated vs. Untr. (IC10 alone, 48 h): DOWN
ABCA12 Expression Difference (IC10 alone, 48 h): 1.702
ABCB1 Expression Difference (IC10 alone, 48 h): 0.568
ABCB1 Treated vs. Untr. (IC10 alone, 48 h): DOWN
ABCB2 Expression Difference (IC10 alone, 48 h): 0.467
ABCB2 Treated vs. Untr. (IC10 alone, 48 h): DOWN
ABCB3 Expression Difference (IC10 alone, 48 h): 0.323
ABCB3 Treated vs. Untr. (IC10 alone, 48 h): DOWN
ABCB6 Expression Difference (IC10 alone, 48 h): 0.524
ABCB6 Treated vs. Untr. (IC10 alone, 48 h): DOWN
ABCB7 Expression Difference (IC10 alone, 48 h): 0.214
ABCB7 Treated vs. Untr. (IC10 alone, 48 h): DOWN
ABCB8 Expression Difference (IC10 alone, 48 h): 0.683
ABCB8 Treated vs. Untr. (IC10 alone, 48 h): DOWN
ABCB9 Expression Difference (IC10 alone, 48 h): 0.639
ABCB9 Treated vs. Untr. (IC10 alone, 48 h): DOWN
ABCB10 Expression Difference (IC10 alone, 48 h): 1.163
ABCC1 Expression Difference (IC10 alone, 48 h): 0.398
ABCC1 Treated vs. Untr. (IC10 alone, 48 h): DOWN
ABCC2 Expression Difference (IC10 alone, 48 h): 0.127
ABCC2 Treated vs. Untr. (IC10 alone, 48 h): DOWN
ABCC3 Expression Difference (IC10 alone, 48 h): 26.21
ABCC4 Expression Difference (IC10 alone, 48 h): 0.316
ABCC4 Treated vs. Untr. (IC10 alone, 48 h): DOWN
ABCC5 Expression Difference (IC10 alone, 48 h): 1.378
ABCC6 Expression Difference (IC10 alone, 48 h): 2.041
ABCC8 Expression Difference (IC10 alone, 48 h): 1.590
ABCC10 Expression Difference (IC10 alone, 48 h): 0.265
ABCC10 Treated vs. Untr. (IC10 alone, 48 h): DOWN
ABCD1 Expression Difference (IC10 alone, 48 h): 0.179
ABCD1 Treated vs. Untr. (IC10 alone, 48 h): DOWN
ABCD3 Expression Difference (IC10 alone, 48 h): 0.365
ABCD3 Treated vs. Untr. (IC10 alone, 48 h): DOWN
ABCD4 Expression Difference (IC10 alone, 48 h): 1.288
ABCE1 Expression Difference (IC10 alone, 48 h): 0.795
ABCE1 Treated vs. Untr. (IC10 alone, 48 h): DOWN
ABCF1 Expression Difference (IC10 alone, 48 h): 3.646
ABCF2 Expression Difference (IC10 alone, 48 h): 0.942
ABCF3 Expression Difference (IC10 alone, 48 h): 0.753
ABCF3 Treated vs. Untr. (IC10 alone, 48 h): DOWN
ABCG1 Expression Difference (IC10 alone, 48 h): 0.325
ABCG1 Treated vs. Untr. (IC10 alone, 48 h): DOWN
ABCG2 Expression Difference (IC10 alone, 48 h): 0.378
ABCG2 Treated vs. Untr. (IC10 alone, 48 h): DOWN
ABCG4 Expression Difference (IC10 alone, 48 h): 0.412
ABCG4 Treated vs. Untr. (IC10 alone, 48 h): DOWN
decrease of expression of ABCB1 (P-gp) encoding gene (IC10 alone, 48 h): 43%
downregulation of expression of ABCC1 (MRP1) (IC10 alone, 48 h): 60%
downregulation of expression of ABCG2 (IC10 alone, 48 h): 62%
